{
  "source": "patent US9107940B2",
  "about": "“Compositions and methods for treating and preventing skeletal muscle deficiencies” (The Regents of the University of Michigan, priority 2007, dated 2015)",
  "key": {"[1]": {"system": "mdx lumbrical (LMB) muscles", "experiment": "Isometric contraction protocol (20 contractions) inducing force deficit in isolated lumbrical muscles in vitro", "parameters": "species or system mouse", "from_the_text": "Specific-pathogen-free male mdx mice (C57BL/10ScSn-mdx stock #001801) 2-3 months of age and wild type (WT) C57BL/10 mice 2-5 months of age were obtained from the Jackson Laboratory (Bar Harbor, Me.). Mice were housed in a specific-pathogen-free barrier facility. All experimental procedures were in accordance with the Guide for the Care and Use of Laboratory Animals [DHHS Publication No. 85-23 (NIH), Revised 1985, Office of Science and Health Reports, Bethesda, Md. 20892].\nMice were anesthetized with an intraperitoneal injection of Avertin (tribromoethanol 400 mg/kg). Supplemental doses of Avertin were administered as required to keep the mouse unresponsive to tactile stimuli. The front paws of the mouse were severed and the LMB muscles dissected free from the second digit. The LMB muscles were selected for their extremely small size that ensured all fibres were accessible to externally applied compounds. Based on physical dimensions, LMB muscle mass was estimated to be approximately 0.7 mg. Dissections were performed in a chilled bathing solution, composition in mM: 137 NaCl, 11.9 NaHCO3, 5.0 KCl, 1.8 CaCl2, 0.5 MgCl2, 0.4 NaH2PO4. The isolated LMB muscle was mounted horizontally in a custom-fabricated chamber with the distal tendon attached to a force transducer (Aurora Scientific, Inc., modified Model 400A) and the proximal tendon attached to a servomotor (Aurora Scientific, Inc., Model 318B) by ties composed of 10-0 monofilament nylon suture. Bath temperature was maintained at 25° C. and the chamber was perfused continuously with Tyrode solution (composition in mM: 121 NaCl, 24 NaHCO3, 5.0 KCl, 1.8 CaCl2, 0.5 MgCl2, 0.4 NaH2PO4) maintained at pH 7.3 by bubbling with a 95%/5% O2/CO2 mixture.\nMuscles were stimulated electrically by current passed between two platinum electrodes. […] Optimum length (Lo) of the muscle was determined by adjusting its length until maximum twitch force was attained. […]\nData are presented as a mean value±SE. […] When ANOVA was used and significance detected, the Student-Newman-Keuls post hoc comparison was used to assess pairwise differences."}, "WT muscles": {"system": "WT muscles", "details": "P188 1 mM or streptomycin 200 μM", "method": "LMB muscles from WT mice, termed WT muscles, were divided into two groups. One group was exposed to normal Tyrode solution and the other group to a calcium-free Tyrode solution. […] For all treatments, muscles were allowed to incubate in the chamber for 15 minutes prior to commencement of the contraction protocol. […] For calcium-free experiments, CaCl2 was omitted from the Tyrode solution and MgCl2 was increased to 2.3 mM to maintain the concentration of divalent ions."}},
  "data": [
    {"compound": "[H]/N=C(/N)N[C@H]1[C@H](O)[C@@H](O)[C@H](O[C@@H]2O[C@@H](C)[C@](O)(C=O)[C@H]2O[C@@H]2O[C@@H](CO)[C@H](O)[C@@H](O)[C@@H]2NC)[C@@H](N/C(N)=N\\[H])[C@@H]1O", "note": "[streptomycin]", "values": [
      {"measurement": "influence on absolute Po", "setting": "[1]; mdx LMB muscles, P188 1 mM, streptomycin 200 μM", "value": "did not influence"},
      {"measurement": "force generated at the end of the contraction protocol (post-protocol normalized Po)", "setting": "[1]; mdx LMB muscles, P188 1 mM, streptomycin 200 μM in Tyrode, 15 min incubation, untreated mdx 69% of Po", "value": "84 % of Po"},
      {"measurement": "contraction-induced force deficit (effect in words)", "setting": "[1]; whole mdx skeletal muscle", "value": "equally effective in reducing the contraction-induced force deficit"},
      {"measurement": "toxicity to the muscle", "setting": "WT muscles", "value": "not toxic"}
    ]}
  ]
}
